For one experiment, the system named is ROS 17/2.8 osteoblasts. The note with it: for increase over the basal level of osteocalcin: 48 hr incubation, Vitamin D3 at 10 nM, internal controls. The procedure:
Cell culture: ROS 17/2.8 osteoblasts were routinely cultured in Ham's F-12 medium containing 5% FBS, 25 rmM HEPES (pH 7.4), 1.1 mM CaCl2, penicillin (10 U/ml) and streptomycin (10 ug/ml). The cells were subcultured twice a week using 0.04% trypsin containing 5 mM EDTA to detach the cells.
For the assay, 30,000 cells were plated per well in 24-well multidishes in 0.5 ml of HAM's F-12 medium containing 1% FBS and allowed to adhere for 3-4 hr at 37° C. in a humidified incubator with 5% CO2. Increasing concentrations of test compounds ([…]) were then added to the wells (duplicate cultures per concentration tested) and the incubation continued for an additional 48 hr. At the end of the incubation, cultures supernatants were removed and assayed for osteocalcin levels using a rat RIA as per the manufacturer's instructions. The lower limit of detection in this assay was 0.3 ng/ml. In every experiment, Vitamin D3 (10 nM) and the peptide cyclo[Arg-Gly-Asp-D-Phe-Val] were tested as an internal controls. […] Activity for each compound was expressed as the EC50 from the dose-response curve.

A further experiment concerns MC3T3-E1 osteoblasts. Briefly: Mineralization of MC3T3 osteoblasts. As to conditions: 25 uM. The experiment is classed as cell-based, murine. The procedure:
Mineralization of MC3T3 osteoblasts
To characterize the temporal sequence of osteoblast differentiation, 30,000 cells were plated/well in 24-well multidishes and grown for periods ranging from 3-26 days in a-MEM medium (GIBCO) containing 10% fetal bovine serum (V/V), penicillin (100 U/ml) and streptomycin (100 ug/ml), with or without supplementation with 5 mM β-glycerophosphate and 100 uM ascorbic acid in the presence or absence of RGD compounds.
Mineralization of cells was assessed by calcium isotope accumulation. Cells were incubated for 48 h in medium containing 0.5 uCi/mi of ^45CaCl2 at various time points after seeding. Subsequently, the monolayers were washed twice with PBS using 1 ml/wash. Cells were harvested and digested in 0.1 N NaOH and aliquots were counted by liquid scintillation counting using a Beckman 5500 scintillation counter.
Calcified nodules in actively mineralizing cultures were visualized by staining cell monolayers with Alizarin-Red-S (Sigma Chemical Co, St Louis, Mo.). Cell cultures were washed twice with PBS, fixed for 10 min in 50 percent ethanol, rehydrated with 1 ml of distilled water for 5 min and then stained for 1-3 min with 200 uL of 1 percent Alizarin Red S (aqueous). The monolayers were then washed extensively and very carefully using 1 ml H2O per wash. Calcified nodules which appeared a bright red color were identified by light microscopy.
To monitor the differentiation of cells to the mature osteoblast type, alkaline phosphatase activity was determined in cell lysates using the colorimetric assay. Cells were washed twice with PBS using 1 ml/wash. Subsequently, the monolayers were transferred to ice and cells lysed in 0.2 ml of 0.1% TX-100. […] The reactions were stopped with the addition of 100 uL of ice cold 0.25 N NaOH to each reaction and absorbance was read at 410 nm. […] Alkaline phosphatase activity was calculated as umol of substrate (p-nitrophenol) released/mg protein/min.
Osteocalcin levels in the supernatants were determined at various time points during the assay using a mouse RIA as per the manufacturers instructions. […]

Where two headings read alike, the source gives them in different places. No end group written: not given here.

Consider “Benzyl-(N-methyl)Arg-Gly-Asp-NH-(2 or 4 chloro)Ph”, for which the “stimulates release of osteocalcin (in words)” value in the experiment with ROS 17/2.8 osteoblasts is recorded as “stimulate the release of osteocalcin”.

With `CC(C)[C@@H]1NC(=O)[C@@H](Cc2ccccc2)NC(=O)[C@H](CC(=O)O)NC(=O)CNC(=O)[C@H](CCCNC(=N)N)NC1=O` [cyclo[Arg-Gly-Asp-D-Phe-Val]], in the experiment with ROS 17/2.8 osteoblasts, the “stimulates release of osteocalcin (in words)” value is “stimulate the release of osteocalcin” and the “increase over the basal level of osteocalcin” value is given as “two to three fold increase”. This molecule also displayed an EC50 with ROS 17/2.8 osteoblasts (48 h) of 740 nM. The “stimulates release of osteocalcin (in words)” value in the experiment with ROS 17/2.8 osteoblasts (listed as cyclo(Arg-Gly-Asp-D-Phe-Val)) is listed as “osteocalcin-releasing”. Moreover, in the experiment with MC3T3-E1 osteoblasts, the 45Ca uptake result is listed as “increased calcium uptake”, the alkaline phosphatase activity result is “enhanced alkaline phosphatase activity” and the “calcification nodules upon Alizarin-Red staining” value was “showed calcification nodules upon Alzirin staining”.

Take `CN1Cc2cc(C(=O)NCc3nc4ccccc4[nH]3)ccc2NC(CC(=O)O)C1=O` (racemic) [7-[(((2-benzimidazolyl)methyl)amino)carbonyl]-2,3,4,5-tetrahydro4-methyl-3-oxo-1H-1,4-benzodiazepine-2-acetic acid]: the “stimulates release of osteocalcin (in words)” value in the experiment with ROS 17/2.8 osteoblasts is recorded as “osteocalcin-releasing”.

Consider Benzyl-(N-methyl)Arg-Gly-Asp-NHPh, for which the “stimulates release of osteocalcin (in words)” value with ROS 17/2.8 osteoblasts is “stimulate the release of osteocalcin”.

In the case of `C=C1CC[C@H](O)C/C1=C/C=C1\CCC[C@]2(C)[C@@H]([C@H](C)CCCC(C)C)CC[C@@H]12` [Vitamin D3], in the experiment on ROS 17/2.8 osteoblasts, the “increase over the basal level of osteocalcin” value was “two to three fold increase”.

Gly-Arc-Gly-Asp-Ser-OH (GRGDS-OH): the “stimulates release of osteocalcin (in words)” value in the experiment on ROS 17/2.8 osteoblasts is “stimulate the release of osteocalcin”.
